From patent US8802597B2, “Herbicidal pyrimidines” (E I du Pont de Nemours and Company, priority 2003, dated 2014)

Experiments:
Test in all cases: Test G pre/postemergence
Assay type in all cases: in vivo
[1] = system: pitted morningglory (Ipomoea lacunosa)
Source text: (§1) Seeds or nutlets of plant species selected from bermudagrass (Cynodon dactylon), Surinam grass (Brachiaria decumbens), large crabgrass (Digitaria sanguinalis), green foxtail (Setaria viridis), goosegrass (Eleusine indica), johnsongrass (Sorghum halepense), kochia (Kochia scoparia), pitted morningglory (Ipomoea lacunosa), purple nutsedge (Cyperus rotundus), common ragweed (Ambrosia elatior), black mustard (Brassica nigra), guineagrass (Panicum maximum), dallisgrass (Paspalum dilatatum), barnyardgrass (Echinochloa crus-galli), southern sandbur (Cenchrus echinatus), common sowthistle (Sonchus oleraceous), prickly sida (Sida spinosa), Italian ryegrass (Lolium multiflorum), common purslane (Portulaca oleracea), broadleaf signalgrass (Brachiaria platyphylla), common groundsel (Senecio vulgaris), common chickweed (Stellaria media), tropical spiderwort (Commelina benghalensis), annual bluegrass (Poa annua), downy bromegrass (Bromus tectorum), itchgrass (Rottboellia cochinchinensis), quackgrass (Elytrigia repens), Canada horseweed (Conyza canadensis), field bindweed (Convolvulus arvensis), spanishneedles (Bidens bipinnata), common mallow (Malva sylvestris), and Russian thistle (Salsola kali) were planted and treated preemergence with test chemicals formulated in a non-phytotoxic solvent mixture which included a surfactant.
(§2) At the same time, plants selected from these weed species were treated with postemergence applications of some of the test chemicals formulated in the same manner. Plants ranged in height from 2 to 18 cm (1- to 4-leaf stage) for postemergence treatments. Treated plants and controls were maintained in a greenhouse for 12 to 21 days, after which time all species were compared to controls and visually evaluated.
(§3) Plant response ratings, summarized in Table G, are based on a scale of 0 to 100 where 0 is no effect and 100 is complete control. A dash (-) response means no test result.

[2] = system: quackgrass (Elytrigia repens)
Source text: as §1, §2, §3

[3] = system: common mallow (Malva sylvestris)
Source text: as §1, §2, §3

[4] = system: common ragweed (Ambrosia elatior)
Source text: as §1, §2, §3

[5] = system: prickly sida (Sida spinosa)
Source text: as §1, §2, §3

[6] = system: itchgrass (Rottboellia cochinchinensis)
Source text: as §1, §2, §3

[7] = system: green foxtail (Setaria viridis)
Source text: as §1, §2, §3

[8] = system: common chickweed (Stellaria media)
Source text: as §1, §2, §3

[9] = system: broadleaf signalgrass (Brachiaria platyphylla)
Source text: as §1, §2, §3

[10] = system: large crabgrass (Digitaria sanguinalis)
Source text: as §1, §2, §3

[11] = system: goosegrass (Eleusine indica)
Source text: as §1, §2, §3

[12] = system: southern sandbur (Cenchrus echinatus)
Source text: as §1, §2, §3

[13] = system: black mustard (Brassica nigra)
Source text: as §1, §2, §3

[14] = system: dallisgrass (Paspalum dilatatum)
Source text: as §1, §2, §3

[15] = Postemergence, 250 g ai/ha, scale 0 to 100
[16] = Postemergence, 16 g ai/ha, scale 0 to 100
[17] = Postemergence, 31 g ai/ha, scale 0 to 100
[18] = Postemergence, 62 g ai/ha, scale 0 to 100
[19] = Postemergence, 125 g ai/ha, scale 0 to 100
[20] = Preemergence, 16 g ai/ha, scale 0-100
[21] = Preemergence, 31 g ai/ha, scale 0-100
[22] = Preemergence, 62 g ai/ha, scale 0-100
[23] = Preemergence, 125 g ai/ha, scale 0-100
[24] = Preemergence, 250 g ai/ha, scale 0-100

**Q.** Which results are given for `Nc1nc(C2CC2)nc(C(=O)OCc2ccccc2)c1Br` [Compound 22, phenylmethyl 6-amino-5-bromo-2-cyclopropyl-4-pyrimidinecarboxylate]?
**A.** Plant response rating, Morningglory [1, 15]: 100; Plant response rating, Morningglory [1, 16]: 50; Plant response rating, Morningglory [1, 17]: 85; Plant response rating, Morningglory [1, 18]: 85; Plant response rating, Morningglory [1, 19]: 95; Plant response rating, Morningglory [1, 20]: 20; Plant response rating, Morningglory [1, 21]: 50; Plant response rating, Morningglory [1, 22]: 60; Plant response rating, Morningglory [1, 23]: 90; Plant response rating, Morningglory [1, 24]: 90; Plant response rating, Quackgrass [2, 15]: 85; Plant response rating, Quackgrass [2, 16]: 15; Plant response rating, Quackgrass [2, 17]: 40; Plant response rating, Quackgrass [2, 18]: 65; Plant response rating, Quackgrass [2, 19]: 75; Plant response rating, Quackgrass [2, 20]: 0; Plant response rating, Quackgrass [2, 21]: 0; Plant response rating, Quackgrass [2, 22]: 20; Plant response rating, Quackgrass [2, 23]: 20; Plant response rating, Quackgrass [2, 24]: 30; Plant response rating, Mallow [3, 15]: 95; Plant response rating, Mallow [3, 16]: 40; Plant response rating, Mallow [3, 17]: 60; Plant response rating, Mallow [3, 19]: 85; Plant response rating, Mallow [3, 20]: 50; Plant response rating, Mallow [3, 21]: 50; Plant response rating, Mallow [3, 22]: 75; Plant response rating, Mallow [3, 23]: 80; Plant response rating, Mallow [3, 24]: 80; Plant response rating, Ragweed [4, 15]: 100; Plant response rating, Ragweed [4, 16]: 65; Plant response rating, Ragweed [4, 17]: 85; Plant response rating, Ragweed [4, 18]: 98; Plant response rating, Ragweed [4, 19]: 98; Plant response rating, Ragweed [4, 20]: 65; Plant response rating, Ragweed [4, 21]: 75; Plant response rating, Ragweed [4, 22]: 90; Plant response rating, Ragweed [4, 23]: 95; Plant response rating, Ragweed [4, 24]: 100; Plant response rating, Prickly Sida [5, 15]: 95; Plant response rating, Prickly Sida [5, 16]: 75; Plant response rating, Prickly Sida [5, 17]: 85; Plant response rating, Prickly Sida [5, 18]: 90; Plant response rating, Prickly Sida [5, 19]: 95; Plant response rating, Prickly Sida [5, 20]: 50; Plant response rating, Prickly Sida [5, 21]: 50; Plant response rating, Prickly Sida [5, 22]: 65; Plant response rating, Prickly Sida [5, 23]: 80; Plant response rating, Prickly Sida [5, 24]: 95; Plant response rating, Itchgrass [6, 15]: 85; Plant response rating, Itchgrass [6, 16]: 15; Plant response rating, Itchgrass [6, 17]: 25; Plant response rating, Itchgrass [6, 18]: 50; Plant response rating, Itchgrass [6, 19]: 75; Plant response rating, Itchgrass [6, 20]: 0; Plant response rating, Itchgrass [6, 21]: 0; Plant response rating, Itchgrass [6, 22]: 20; Plant response rating, Itchgrass [6, 23]: 40; Plant response rating, Itchgrass [6, 24]: 65; Plant response rating, Foxtail, Green [7, 15]: 75; Plant response rating, Foxtail, Green [7, 16]: 0; Plant response rating, Foxtail, Green [7, 17]: 15; Plant response rating, Foxtail, Green [7, 18]: 25; Plant response rating, Foxtail, Green [7, 19]: 50; Plant response rating, Foxtail, Green [7, 20]: 0; Plant response rating, Foxtail, Green [7, 21]: 0; Plant response rating, Foxtail, Green [7, 22]: 0; Plant response rating, Foxtail, Green [7, 23]: 10; Plant response rating, Foxtail, Green [7, 24]: 20; Plant response rating, Chickweed [8, 15]: 95; Plant response rating, Chickweed [8, 17]: 50; Plant response rating, Chickweed [8, 18]: 50; Plant response rating, Chickweed [8, 19]: 85; Plant response rating, Chickweed [8, 20]: 0; Plant response rating, Chickweed [8, 21]: 50; Plant response rating, Chickweed [8, 23]: 90; Plant response rating, Chickweed [8, 24]: 100; Plant response rating, Signalgrass [9, 15]: 85; Plant response rating, Signalgrass [9, 16]: 5; Plant response rating, Signalgrass [9, 17]: 15; Plant response rating, Signalgrass [9, 18]: 25; Plant response rating, Signalgrass [9, 19]: 50; Plant response rating, Signalgrass [9, 20]: 0; Plant response rating, Signalgrass [9, 21]: 0; Plant response rating, Signalgrass [9, 22]: 0; Plant response rating, Signalgrass [9, 23]: 10; Plant response rating, Signalgrass [9, 24]: 80; Plant response rating, Crabgrass, Large [10, 15]: 85; Plant response rating, Crabgrass, Large [10, 16]: 15; Plant response rating, Crabgrass, Large [10, 17]: 35; Plant response rating, Crabgrass, Large [10, 18]: 50; Plant response rating, Crabgrass, Large [10, 19]: 85; Plant response rating, Crabgrass, Large [10, 20]: 0; Plant response rating, Crabgrass, Large [10, 21]: 40; Plant response rating, Crabgrass, Large [10, 22]: 40; Plant response rating, Crabgrass, Large [10, 23]: 80; Plant response rating, Crabgrass, Large [10, 24]: 80; Plant response rating, Goosegrass [11, 15]: 50; Plant response rating, Goosegrass [11, 16]: 5; Plant response rating, Goosegrass [11, 17]: 15; Plant response rating, Goosegrass [11, 18]: 25; Plant response rating, Goosegrass [11, 19]: 35; Plant response rating, Goosegrass [11, 20]: 0; Plant response rating, Goosegrass [11, 21]: 0; Plant response rating, Goosegrass [11, 22]: 0; Plant response rating, Goosegrass [11, 23]: 0; Plant response rating, Goosegrass [11, 24]: 0; Plant response rating, Sandbur [12, 15]: 95; Plant response rating, Sandbur [12, 16]: 0; Plant response rating, Sandbur [12, 17]: 15; Plant response rating, Sandbur [12, 18]: 40; Plant response rating, Sandbur [12, 19]: 85; Plant response rating, Sandbur [12, 20]: 0; Plant response rating, Sandbur [12, 21]: 0; Plant response rating, Sandbur [12, 22]: 0; Plant response rating, Sandbur [12, 23]: 70; Plant response rating, Sandbur [12, 24]: 85; Plant response rating, Black Mustard [13, 15]: 95; Plant response rating, Black Mustard [13, 16]: 50; Plant response rating, Black Mustard [13, 17]: 75; Plant response rating, Black Mustard [13, 18]: 75; Plant response rating, Black Mustard [13, 19]: 95; Plant response rating, Black Mustard [13, 20]: 30; Plant response rating, Black Mustard [13, 21]: 35; Plant response rating, Black Mustard [13, 22]: 60; Plant response rating, Black Mustard [13, 23]: 65; Plant response rating, Black Mustard [13, 24]: 75; Plant response rating, Dallisgrass [14, 15]: 75; Plant response rating, Dallisgrass [14, 16]: 0; Plant response rating, Dallisgrass [14, 17]: 0; Plant response rating, Dallisgrass [14, 18]: 15; Plant response rating, Dallisgrass [14, 19]: 25; Plant response rating, Dallisgrass [14, 20]: 0; Plant response rating, Dallisgrass [14, 21]: 0; Plant response rating, Dallisgrass [14, 22]: 0; Plant response rating, Dallisgrass [14, 23]: 40; Plant response rating, Dallisgrass [14, 24]: 50
